# Experimental data taken from paper PMC11381307 (Frontiers in Pharmacology, 2024).
# pIC50: −log10 of the molar value.
# What was measured:
# MRP2 = MRP2 (Homo sapiens, UniProt Q92887); test: biochemical
# Procedure: The substrate study was performed at 37°C with a water bath using a mixture comprising of 10 μL of vesicle membranes (5 mg/mL) and 10 μL of Buffer A2 (replaced with 5 μL Reagent G and 5 μL inhibitors for the inhibitor groups). The mixture was pre-incubated at 37°C with a water bath for 5 min. Meanwhile, 10 μL of dosing solution of the compounds or probe substrates and 10 μL of Reagent C2 (ATP) or D2 (AMP, as the non-ATP dependent control) were mixed and pre-incubated at 37°C for 5 min. Following pre-incubation, the two mixtures were mixed and incubated for an additional 5 min.
# After incubation, the reactions were stopped with ice-cold Buffer B, filtered through a 96-well filter plate to separate vesicle-associated ligands from the matrix, and washed five times with ice-cold Buffer B. The vesicles on the filer plate were dissolved using 50 μL of 80% methanol (v/v), and the filtrate was collected by centrifugation at 2000 rpm for 2 min. The dissolution and centrifugation procedures were repeated. […] The supernatant was collected to quantify the amount of compound or substrate using LC-MS. […]
# For the substrate assay, the amount of compounds in the vesicle was determined with LC-MS to calculate the transport activity, UR, and inhibition rate using Equations 11–13, which were used to determine whether the compounds were substrates of the transporter. […]
# UGT1A9/2B7 = details: 50 μM, 96 h treatment; 100 μM substrate, 30 min
# Procedure: (§1) Cryopreserved human hepatocytes were recovered in a pre-warmed incubation medium, diluted to a viable cell density (∼0.7 × 10^6 cells/mL) using a plating medium, followed by the addition of 100 μL hepatocytes into each well of a collagen I-coated 96-well plate. The cell monolayer was formed after an overnight incubation period at 37°C under 5%CO2. The plating medium was then replaced with an incubation medium for further culture. On the second day, an incubation medium containing different concentrations of either compound, the inducer omeprazole (final concentration of 50 μM), or vehicle (0.1% [v/v] dimethyl sulfoxide [DMSO]). […] At the end of the incubation period, the medium was replaced with a substrate for UGT and MPA. […] Finally, the supernatant was collected after centrifugation at 4,000 rpm for 10 min and analyzed for glucuronide formation using liquid chromatography-mass spectrometry (LC-MS).
# (§2) The formation of glucuronide metabolites, as determined with LC-MS, was used to calculate the formation rate linked to enzyme activity according to Equation 1. […]
# (§3) The percentage of enzyme activity relative to the NC (%) was determined using Equation 2. […]
# (§4) The formation of 4-trifluoromethyl-7-hydroxycoumarin glucuronide and estradiol-3-glucuronide was detected to evaluate the induction of UGT enzyme activity compared with that in the NC group.
# UGT = test: Human hepatocyte UGT induction study, conversion of MPA to MPAG; type: cell-based; details: 50 μM, 96 h treatment
# Procedure: Cryopreserved human hepatocytes were recovered in a pre-warmed incubation medium, diluted to a viable cell density (∼0.7 × 10^6 cells/mL) using a plating medium, followed by the addition of 100 μL hepatocytes into each well of a collagen I-coated 96-well plate. The cell monolayer was formed after an overnight incubation period at 37°C under 5%CO2. The plating medium was then replaced with an incubation medium for further culture. On the second day, an incubation medium containing different concentrations of either compound, the inducer omeprazole (final concentration of 50 μM), or vehicle (0.1% [v/v] dimethyl sulfoxide [DMSO]). […] At the end of the incubation period, the medium was replaced with a substrate for UGT and MPA. Following a further incubation of 15 or 30 min at 37°C under 5% CO2, 100 μL of the reaction medium was transferred to 400 μL of ice-cold methanol containing internal standard (IS) to terminate the reaction. Finally, the supernatant was collected after centrifugation at 4,000 rpm for 10 min and analyzed for glucuronide formation using liquid chromatography-mass spectrometry (LC-MS).
# The formation of glucuronide metabolites, as determined with LC-MS, was used to calculate the formation rate linked to enzyme activity according to Equation 1. Formation rate pmol/10^6 cells/min=amount of glucuronide metabolites formation pmol/number of cells 10^6 cells×incubation time min (1)
# The percentage of enzyme activity relative to the NC (%) was determined using Equation 2. Relative enzyme activity % of NC=formation rate in the compound−treated group/that in NC×100 (2)
# UGT1A1/1A3 = details: 50 μM, 96 h treatment; 100 μM substrate, 30 min
# Procedure: as §1, §2, §3, §4
# Sequence of MRP2 (Q92887 whole entry): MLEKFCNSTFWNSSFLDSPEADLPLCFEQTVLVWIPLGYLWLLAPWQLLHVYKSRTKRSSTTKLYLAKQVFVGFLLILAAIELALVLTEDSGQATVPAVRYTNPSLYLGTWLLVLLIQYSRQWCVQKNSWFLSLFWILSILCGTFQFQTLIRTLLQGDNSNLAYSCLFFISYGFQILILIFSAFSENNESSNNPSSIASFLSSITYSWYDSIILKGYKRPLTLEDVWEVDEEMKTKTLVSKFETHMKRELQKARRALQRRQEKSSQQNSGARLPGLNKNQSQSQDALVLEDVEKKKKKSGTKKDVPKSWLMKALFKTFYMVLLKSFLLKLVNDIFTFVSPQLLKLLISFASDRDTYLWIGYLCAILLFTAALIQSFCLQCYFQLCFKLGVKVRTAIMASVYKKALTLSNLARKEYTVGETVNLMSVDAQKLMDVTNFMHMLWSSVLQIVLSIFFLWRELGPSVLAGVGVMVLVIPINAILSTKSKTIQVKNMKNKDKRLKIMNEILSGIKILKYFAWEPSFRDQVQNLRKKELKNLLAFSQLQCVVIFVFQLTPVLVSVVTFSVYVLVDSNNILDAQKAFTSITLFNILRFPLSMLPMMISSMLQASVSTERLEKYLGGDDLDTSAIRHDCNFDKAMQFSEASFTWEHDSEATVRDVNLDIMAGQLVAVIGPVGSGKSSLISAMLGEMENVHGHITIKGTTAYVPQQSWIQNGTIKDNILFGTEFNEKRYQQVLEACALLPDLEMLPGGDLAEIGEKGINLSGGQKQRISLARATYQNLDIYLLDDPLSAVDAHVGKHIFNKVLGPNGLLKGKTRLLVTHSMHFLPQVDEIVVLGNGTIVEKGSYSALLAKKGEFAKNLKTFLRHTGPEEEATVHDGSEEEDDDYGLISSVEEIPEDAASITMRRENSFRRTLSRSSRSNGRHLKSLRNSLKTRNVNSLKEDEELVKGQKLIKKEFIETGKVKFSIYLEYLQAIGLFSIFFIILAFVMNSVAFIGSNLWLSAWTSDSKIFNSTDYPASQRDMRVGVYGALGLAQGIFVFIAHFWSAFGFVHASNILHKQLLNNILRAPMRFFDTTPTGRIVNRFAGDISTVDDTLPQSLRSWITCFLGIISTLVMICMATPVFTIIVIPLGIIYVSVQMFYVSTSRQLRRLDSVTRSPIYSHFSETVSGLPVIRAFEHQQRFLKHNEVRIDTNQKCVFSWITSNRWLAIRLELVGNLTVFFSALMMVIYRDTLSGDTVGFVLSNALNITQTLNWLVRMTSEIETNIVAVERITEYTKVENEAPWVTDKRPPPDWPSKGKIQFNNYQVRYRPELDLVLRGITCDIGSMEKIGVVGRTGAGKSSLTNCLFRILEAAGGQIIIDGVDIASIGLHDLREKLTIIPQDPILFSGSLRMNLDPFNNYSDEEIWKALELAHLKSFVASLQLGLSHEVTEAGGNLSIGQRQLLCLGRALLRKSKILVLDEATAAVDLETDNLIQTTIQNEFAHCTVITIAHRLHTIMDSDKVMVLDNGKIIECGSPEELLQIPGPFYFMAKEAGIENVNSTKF
smiles,measurement,setting,value
CCc1oc2ccccc2c1C(=O)c1cc(Br)c(O)c(Br)c1 [benzbromarone],pIC50,MRP2,4.75
COc1ccc2[nH]c([S+]([O-])Cc3ncc(C)c(OC)c3C)nc2c1 (stereo not shown) [omeprazole],"4-trifluoromethyl-7-hydroxycoumarin glucuronidation activity, % of NC (Mean)",UGT1A9/2B7,145 % of NC
same,"formation of MPAG, % of NC (Mean)",UGT,110 % of NC
same,"β-estradiol glucuronidation activity, % of NC (Mean)",UGT1A1/1A3,243 % of NC
